# Experimental data reported in US8778973B2, “Alkene oxindole derivatives” (Hoffmann-La Roche Inc., priority 2009, dated 2014).
# Tested on: Recombinant human AMPK proteins (α1β1γ1, α2β1γ1, α1(1-335), α1(1-394) or α2(1-394))
# Test: Scintillation Proximity Assay (SPA) of AMPK activation
# Type: biochemical
# Conditions: activator concentration for 50% of maximal enzyme activity; 50 nM recombinant AMPK, 2 μM ATP, 30° C., 2 hr
# How it was run: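 Recombinant human AMPK (α1β1γ1, α2β1γ1 or α-subunit truncations), fully pre-phosphorylated, was used at 50 nM with 2 μM biotin-SAMS, 2 μM ATP plus [γ-^33P]ATP in Tris-HCl pH 7.5, MgCl2, DTT, 2 hr at 30° C. Product was captured on streptavidin SPA beads. EC50 was the activator concentration giving 50% of maximal activity.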
row,SMILES,EC50
1,"COC(=O)c1cccc(CN2C(=O)/C(=C(/c3ccc(Cl)cc3)C3CCCCC3)c3ccccc32)c1 [Example 87, 3-{3-[1-(4-Chloro-phenyl)-1-cyclohexyl-meth-(E)-ylidene]-2-oxo-2,3-dihydro-indol-1-ylmethyl}-benzoic acid methyl ester]",10.7 µM
2,"COC(=O)c1cccc(CN2C(=O)/C(=C(/c3ccc(C(F)(F)F)cc3)C(C)C)c3ccccc32)c1 [Example 88, 3-{3-[2-Methyl-1-(4-trifluoromethyl-phenyl)-prop-(E)-ylidene]-2-oxo-2,3-dihydro-indol-1-ylmethyl}-benzoic acid methyl ester]",2.59 µM
3,"O=C(O)c1cccc(CN2C(=O)/C(=C(/c3ccc(Cl)cc3)C3CCCCC3)c3ccccc32)c1 [Example 104, 3-{3-[1-(4-Chloro-phenyl)-1-cyclohexyl-meth-(E)-ylidene]-2-oxo-2,3-dihydro-indol-1-ylmethyl}-benzoic acid]",4.63 µM
4,"CC(C)/C(=C1\C(=O)N(Cc2cccc(C(=O)O)c2)c2ccccc21)c1ccc(C(F)(F)F)cc1 [Example 105, 3-{3-[2-Methyl-1-(4-trifluoromethyl-phenyl)-prop-(E)-ylidene]-2-oxo-2,3-dihydro-indol-1-ylmethyl}-benzoic acid]",2.95 µM
5,"CC(C)/C(=C1\C(=O)N(Cc2cccc(C(=O)O)c2)c2ccccc21)c1ccsc1 [Example 106, 3-{3-[2-Methyl-1-thiophen-3-yl-prop-(E)-ylidene]-2-oxo-2,3-dihydro-indol-1-ylmethyl}-benzoic acid]",1.61 µM
6,"CC(C)/C(=C1\C(=O)N(Cc2cccc(C(=O)O)c2)c2ccc(Cl)cc21)c1ccc(C(F)(F)F)cc1 [Example 107, 3-{5-Chloro-3-[2-methyl-1-(4-trifluoromethyl-phenyl)-prop-(E)-ylidene]-2-oxo-2,3-dihydro-indol-1-ylmethyl}-benzoic acid]",0.66 µM
7,"CC(=O)c1ccc(/C(=C2/C(=O)N(Cc3cccc(C(=O)O)c3)c3ccccc32)C(C)C)cc1 [Example 108, 3-{3-[1-(4-Acetyl-phenyl)-2-methyl-prop-(E)-ylidene]-2-oxo-2,3-dihydro-indol-1-ylmethyl}-benzoic acid]",3.25 µM
